# Tested on: MDA-MB-231 cells
# Assay: Extracellular lactate production inhibition after 4 h, MDA-MB-231
# Details: Homo sapiens, MDA-MB-231
row,Structure (SMILES),IC50 [µM]
1,"O=C(O)c1ccc(C#Cc2ccccc2NS(=O)(=O)c2ccc(OC(F)(F)F)c3cccnc23)cn1 [Compound 384, 5-[2-(5-Trifluoromethoxy-quinoline-8-sulfonylamino)-phenylethynyl]-pyridine-2-carboxylic acid]",0.01 to 0.1
2,"COc1ccc(S(=O)(=O)Nc2ccccc2C#Cc2ccc(C(=O)N3CCCC3)nc2)c2ncccc12 [Compound 386, 5-Methoxy-quinoline-8-sulfonic acid {2-[6-(pyrrolidine-1-carbonyl)-pyridin-3-ylethynyl]-phenyl}-amide]",1 to 100
3,"COc1ccc(S(=O)(=O)Nc2ccc(Cl)cc2C#Cc2ccc(C(=O)O)nc2)c(C)c1C [Compound 387, 5-[5-Chloro-2-(4-methoxy-2,3-dimethyl-benzenesulfonylamino)-phenylethynyl]-pyridine-2-carboxylic acid]",0.01 to 0.1
4,"COc1ccc(S(=O)(=O)Nc2ccc(Cl)cc2C#Cc2cnc(C(=O)O)cc2OC)cc1 [Compound 388, 5-[5-Chloro-2-(4-methoxy-benzenesulfonylamino)-phenylethynyl]-4-methoxy-pyridine-2-carboxylic acid]",0.01 to 0.1
5,"COc1ccc(S(=O)(=O)Nc2ccc(Cl)cc2C#Cc2ccc(C(=O)O)nc2)cc1 [Compound 390, 5-[5-Chloro-2-(4-methoxy-benzenesulfonylamino)-phenylethynyl]-pyridine-2-carboxylic acid]",0.1 to 1
6,"Cc1ccc(NS(=O)(=O)c2c(C)ccc3cccnc23)c(C#Cc2ccc(C(=O)O)nc2)c1 [Compound 393, 5-[5-Methyl-2-(7-methyl-quinoline-8-sulfonylamino)-phenylethynyl]-pyridine-2-carboxylic acid]",0.001 to 0.01
7,"CCNc1cc(C#Cc2ccccc2NS(=O)(=O)c2cccc3cccnc23)cnc1C(=O)O [Compound 394, 3-(ethylamino)-5-{2-[2-(quinoline-8-sulfonamido)phenyl]ethynyl}pyridine-2-carboxylic acid]",0.001 to 0.01
8,"COc1ccc(NS(=O)(=O)c2ccc(OC)c3cccnc23)c(C#Cc2ccc(C(=O)O)nc2)c1 [Compound 397, 5-[5-Methoxy-2-(5-methoxy-quinoline-8-sulfonylamino)-phenylethynyl]-pyridine-2-carboxylic acid]",0.01 to 0.1
9,"COc1ccc(S(=O)(=O)Nc2ccc(Br)cc2C#Cc2cnc(C(=O)O)c3ccccc23)c(C)c1C [Compound 398, 4-{2-[5-bromo-2-(4-methoxy-2,3-dimethylbenzenesulfonamido)phenyl]ethynyl}isoquinoline-1-carboxylic acid]",0.01 to 0.1
10,"CNc1cc(C#Cc2cc(Cl)ccc2NS(=O)(=O)c2ccc(OC)c(C)c2C)cnc1C(=O)O [Compound 403, 5-{2-[5-chloro-2-(4-methoxy-2,3-dimethylbenzenesulfonamido)phenyl]ethynyl}-3-(methylamino)pyridine-2-carboxylic acid]",0.01 to 0.1
11,"COCCOC(=O)c1cc(OC)c(C#Cc2ccccc2NS(=O)(=O)c2ccc(OC)c3cccnc23)cn1 [Compound 405, 2-methoxyethyl 4-methoxy-5-{2-[2-(5-methoxyquinoline-8-sulfonamido)phenyl]ethynyl}pyridine-2-carboxylate]",0.1 to 1
12,"COc1cc(C(=O)OCC2COC(C)(C)O2)ncc1C#Cc1ccccc1NS(=O)(=O)c1c(C)ccc2cccnc12 (stereo not shown) [Compound 406, (2,2-dimethyl-1,3-dioxolan-4-yl)methyl 4-methoxy-5-{2-[2-(7-methylquinoline-8-sulfonamido)phenyl]ethynyl}pyridine-2-carboxylate]",0.01 to 0.1
13,"COc1cc(C(=O)OCC(O)CO)ncc1C#Cc1ccccc1NS(=O)(=O)c1c(C)ccc2cccnc12 (stereo not shown) [Compound 408, 2,3-dihydroxypropyl 4-methoxy-5-{2-[2-(7-methylquinoline-8-sulfonamido)phenyl]ethynyl}pyridine-2-carboxylate]",0.01 to 0.1

# More lines, now with the values ahead:
row,IC50 [µM],Structure (SMILES)
1,1 to 100,"Cc1ccc2cccnc2c1S(=O)(=O)Nc1ccccc1C#Cc1ccc(C(=O)N2CCCCC2)nc1 [Compound 385, 7-Methyl-quinoline-8-sulfonic acid {2-[6-(piperidine-1-carbonyl)-pyridin-3-ylethynyl]-phenyl}-amide]"
2,0.001 to 0.01,"COc1cc(C(=O)O)ncc1C#Cc1ccccc1NS(=O)(=O)c1ccc(OC(F)(F)F)c2cccnc12 [Compound 389, 4-Methoxy-5-[2-(5-trifluoromethoxy-quinoline-8-sulfonylamino)-phenylethynyl]-pyridine-2-carboxylic acid]"
3,0.1 to 1,"COc1ccc(S(=O)(=O)Nc2ccccc2C#Cc2cnc(C(=O)O)cc2OC)cc1 [Compound 391, 4-Methoxy-5-[2-(4-methoxy-benzenesulfonylamino)-phenylethynyl]-pyridine-2-carboxylic acid]"
4,0.1 to 1,"COc1ccc(S(=O)(=O)Nc2ccccc2C#Cc2ccc(C(=O)NC(C)C)nc2)c2ncccc12 [Compound 392, 5-[2-(5-Methoxy-quinoline-8-sulfonylamino)-phenylethynyl]-pyridine-2-carboxylic acid isopropylamide]"
5,0.1 to 1,"COc1ccc(S(=O)(=O)Nc2ccccc2C#Cc2cnc(C(=O)O)c3ccccc23)c(C)c1C [Compound 395, 4-[2-(4-Methoxy-2,3-dimethyl-benzenesulfonylamino)-phenylethynyl]-isoquinoline-1-carboxylic acid]"
6,0.001 to 0.01,"Cc1ccc2cccnc2c1S(=O)(=O)Nc1ccccc1C#Cc1ccc(C(=O)OCC(O)CO)nc1 (stereo not shown) [Compound 396, 2,3-dihydroxypropyl 5-{2-[2-(7-methylquinoline-8-sulfonamido)phenyl]ethynyl}pyridine-2-carboxylate]"
7,0.1 to 1,"Cc1ccc2cccnc2c1S(=O)(=O)Nc1ccccc1C#Cc1cnc(C(=O)O)c(CO)c1 [Compound 399, 3-(hydroxymethyl)-5-{2-[2-(7-methylquinoline-8-sulfonamido)phenyl]ethynyl}pyridine-2-carboxylic acid]"
8,0.01 to 0.1,"COc1ccc(S(=O)(=O)Nc2ccc(Cl)cc2C#Cc2cnc(C(=O)O)c3ccccc23)c(C)c1C [Compound 400, 4-[5-Chloro-2-(4-methoxy-2,3-dimethyl-benzenesulfonylamino)-phenylethynyl]-isoquinoline-1-carboxylic acid]"
9,0.01 to 0.1,"Cc1ccc2cccnc2c1S(=O)(=O)Nc1ccccc1C#Cc1cnc2c(c1)COC2=O [Compound 401, 7-methyl-N-[2-(2-{7-oxo-5H,7H-furo[3,4-b]pyridin-3-yl}ethynyl)phenyl]quinoline-8-sulfonamide]"
10,0.01 to 0.1,"COc1ccc(S(=O)(=O)Nc2ccccc2C#Cc2cnc(C(=O)O)c(N)c2)c(C)c1C [Compound 402, 3-amino-5-{2-[2-(4-methoxy-2,3-dimethylbenzenesulfonamido)phenyl]ethynyl}pyridine-2-carboxylic acid]"
11,0.1 to 1,"Cc1ccc2cccnc2c1S(=O)(=O)Nc1ccccc1C#Cc1ccc(C(=O)OCC2COC(C)(C)O2)nc1 (stereo not shown) [Compound 404, (2,2-dimethyl-1,3-dioxolan-4-yl)methyl 5-{2-[2-(7-methylquinoline-8-sulfonamido)phenyl]ethynyl}pyridine-2-carboxylate]"
12,1 to 100,"Cc1ccc2cccnc2c1S(=O)(=O)Nc1ccccc1C#Cc1ccc(C(=O)OCCCCN(C)C)nc1 [Compound 407, 4-(dimethylamino)butyl 5-{2-[2-(7-methylquinoline-8-sulfonamido)phenyl]ethyny}pyridine-2-carboxylate]"

# From patent publication US12351570B2 (MERCK PATENT GMBH, priority 2018, dated 2025)
